Type in all cases: cell-based
For experiment [1], the target named is Met (phospho-Met, HGF-stimulated PC-3 prostate cancer cells) (Homo sapiens (Human), UniProt P08581). Description: Met autophosphorylation ELISA in PC-3 cells (Example F). Particulars: cellular activity; Met autophosphorylation ELISA in PC-3 cells; read-out: c-Met IC50. The essentials:
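Serum-starved (3 h) PC-3 cells were treated 1 h with compounds (8-point curve, 0.3% DMSO), then stimulated with 100 ng/mL human HGF for 10 min. Lysate phospho-Met (panTyr) was measured by sandwich ELISA, normalised to DMSO and reference-inhibitor controls. IC50 came from 4-parameter logistic fit.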

Experiment [2] deals with AXL (phospho-AXL, Gas6-stimulated A-172 glioblastoma cells) (Homo sapiens (Human), UniProt P30530). In words: AXL autophosphorylation ELISA in A-172 cells (Example E). The following applies: cellular activity; AXL autophosphorylation ELISA in A-172 cells; read-out: Axl IC50. The essentials: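 Phospho-AXL was measured by ELISA in lysates of Gas6-stimulated A-172 cells, starved 24 h in serum-free medium and exposed 1 h to an 8-point compound dilution at 0.3% DMSO.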
Chain of AXL (phospho-AXL, Gas6-stimulated A-172 glioblastoma cells) (P30530 26-894): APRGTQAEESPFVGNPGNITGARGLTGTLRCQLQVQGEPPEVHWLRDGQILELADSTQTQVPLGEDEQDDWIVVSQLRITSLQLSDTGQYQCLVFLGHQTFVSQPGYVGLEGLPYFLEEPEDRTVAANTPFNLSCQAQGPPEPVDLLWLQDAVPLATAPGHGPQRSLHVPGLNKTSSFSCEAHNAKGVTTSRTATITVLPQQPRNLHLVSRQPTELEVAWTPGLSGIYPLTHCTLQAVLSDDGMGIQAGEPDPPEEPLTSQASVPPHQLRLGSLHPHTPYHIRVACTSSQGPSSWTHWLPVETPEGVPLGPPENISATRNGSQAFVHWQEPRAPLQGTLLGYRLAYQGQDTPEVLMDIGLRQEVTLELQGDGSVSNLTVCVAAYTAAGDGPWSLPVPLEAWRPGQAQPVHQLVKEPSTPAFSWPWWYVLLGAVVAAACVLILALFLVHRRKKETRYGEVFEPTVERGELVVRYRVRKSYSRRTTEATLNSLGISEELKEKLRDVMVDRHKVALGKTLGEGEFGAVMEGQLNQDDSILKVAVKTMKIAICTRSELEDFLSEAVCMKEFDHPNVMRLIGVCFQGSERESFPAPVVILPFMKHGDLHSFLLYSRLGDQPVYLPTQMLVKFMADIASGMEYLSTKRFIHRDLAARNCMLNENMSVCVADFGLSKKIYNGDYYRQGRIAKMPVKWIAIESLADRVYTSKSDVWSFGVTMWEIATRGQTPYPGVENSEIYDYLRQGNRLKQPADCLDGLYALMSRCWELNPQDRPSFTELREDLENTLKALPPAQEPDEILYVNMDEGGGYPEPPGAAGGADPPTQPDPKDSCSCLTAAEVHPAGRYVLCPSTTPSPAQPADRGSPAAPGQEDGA

Experiment [3] deals with Mer (phospho-Mer, MERTK-transfected 293A cells) (Homo sapiens (Human), UniProt Q12866). In words: Mer autophosphorylation ELISA in transient transfected 293A cells (Example H). The following applies: cellular activity; Mer autophosphorylation ELISA in transient transfected 293A cells. The method in brief: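 MERTK-transfected 293A; 8-pt dose, 1 h, serum-free, 0.3% DMSO. Cold lysis with orthovanadate and protease/phosphatase inhibitors. Phospho-Mer by DuoSet IC ELISA vs phospho-Mer standard. IC50: 4-PL fit; DMSO = 100%, reference inhibitor = 0%.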
Chain of Mer (phospho-Mer, MERTK-transfected 293A cells) (Q12866 21-999): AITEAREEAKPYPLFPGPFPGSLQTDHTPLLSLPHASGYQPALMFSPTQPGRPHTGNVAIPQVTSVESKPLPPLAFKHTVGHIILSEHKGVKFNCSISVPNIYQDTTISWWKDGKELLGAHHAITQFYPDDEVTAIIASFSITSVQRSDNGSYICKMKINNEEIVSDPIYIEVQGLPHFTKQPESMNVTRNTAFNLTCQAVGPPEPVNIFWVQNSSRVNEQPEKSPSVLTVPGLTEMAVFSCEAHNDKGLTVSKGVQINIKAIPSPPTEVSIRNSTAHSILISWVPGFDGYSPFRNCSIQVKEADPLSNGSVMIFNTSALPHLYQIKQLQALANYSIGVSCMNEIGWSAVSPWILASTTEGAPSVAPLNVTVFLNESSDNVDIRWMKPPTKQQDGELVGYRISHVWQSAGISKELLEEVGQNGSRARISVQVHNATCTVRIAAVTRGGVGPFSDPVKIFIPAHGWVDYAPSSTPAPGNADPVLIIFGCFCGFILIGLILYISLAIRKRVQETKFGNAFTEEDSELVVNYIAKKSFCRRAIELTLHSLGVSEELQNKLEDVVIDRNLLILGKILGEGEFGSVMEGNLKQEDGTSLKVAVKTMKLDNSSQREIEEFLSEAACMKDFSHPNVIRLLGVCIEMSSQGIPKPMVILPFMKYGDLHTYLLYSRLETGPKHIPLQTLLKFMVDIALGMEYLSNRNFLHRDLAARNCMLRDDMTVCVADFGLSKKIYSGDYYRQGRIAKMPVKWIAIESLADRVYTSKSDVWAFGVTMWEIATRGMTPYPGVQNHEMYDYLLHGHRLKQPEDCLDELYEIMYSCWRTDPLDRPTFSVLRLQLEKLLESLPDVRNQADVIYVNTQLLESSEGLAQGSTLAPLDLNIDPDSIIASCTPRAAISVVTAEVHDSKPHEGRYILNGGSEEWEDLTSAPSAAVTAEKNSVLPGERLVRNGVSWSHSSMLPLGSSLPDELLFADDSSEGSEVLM

Experiment [4] concerns the target KDR (phospho-KDR, VEGF165-stimulated HUVEC cells) (Homo sapiens (Human), UniProt P35968). In words: KDR autophosphorylation ELISA in HUVEC cells (Example G). The following applies: cellular activity; KDR autophosphorylation ELISA in HUVEC cells. The method in brief:
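First, endothelial cells were cultured a day, then kept without serum for another day. Next came 1 h with serially diluted compound, a brief 5 min VEGF165 stimulus (100 ng/mL), rapid lysis, and ELISA detection of receptor phosphorylation relative to stimulated and non-stimulated controls.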

Chain of Met (phospho-Met, HGF-stimulated PC-3 prostate cancer cells) (P08581 25-1390): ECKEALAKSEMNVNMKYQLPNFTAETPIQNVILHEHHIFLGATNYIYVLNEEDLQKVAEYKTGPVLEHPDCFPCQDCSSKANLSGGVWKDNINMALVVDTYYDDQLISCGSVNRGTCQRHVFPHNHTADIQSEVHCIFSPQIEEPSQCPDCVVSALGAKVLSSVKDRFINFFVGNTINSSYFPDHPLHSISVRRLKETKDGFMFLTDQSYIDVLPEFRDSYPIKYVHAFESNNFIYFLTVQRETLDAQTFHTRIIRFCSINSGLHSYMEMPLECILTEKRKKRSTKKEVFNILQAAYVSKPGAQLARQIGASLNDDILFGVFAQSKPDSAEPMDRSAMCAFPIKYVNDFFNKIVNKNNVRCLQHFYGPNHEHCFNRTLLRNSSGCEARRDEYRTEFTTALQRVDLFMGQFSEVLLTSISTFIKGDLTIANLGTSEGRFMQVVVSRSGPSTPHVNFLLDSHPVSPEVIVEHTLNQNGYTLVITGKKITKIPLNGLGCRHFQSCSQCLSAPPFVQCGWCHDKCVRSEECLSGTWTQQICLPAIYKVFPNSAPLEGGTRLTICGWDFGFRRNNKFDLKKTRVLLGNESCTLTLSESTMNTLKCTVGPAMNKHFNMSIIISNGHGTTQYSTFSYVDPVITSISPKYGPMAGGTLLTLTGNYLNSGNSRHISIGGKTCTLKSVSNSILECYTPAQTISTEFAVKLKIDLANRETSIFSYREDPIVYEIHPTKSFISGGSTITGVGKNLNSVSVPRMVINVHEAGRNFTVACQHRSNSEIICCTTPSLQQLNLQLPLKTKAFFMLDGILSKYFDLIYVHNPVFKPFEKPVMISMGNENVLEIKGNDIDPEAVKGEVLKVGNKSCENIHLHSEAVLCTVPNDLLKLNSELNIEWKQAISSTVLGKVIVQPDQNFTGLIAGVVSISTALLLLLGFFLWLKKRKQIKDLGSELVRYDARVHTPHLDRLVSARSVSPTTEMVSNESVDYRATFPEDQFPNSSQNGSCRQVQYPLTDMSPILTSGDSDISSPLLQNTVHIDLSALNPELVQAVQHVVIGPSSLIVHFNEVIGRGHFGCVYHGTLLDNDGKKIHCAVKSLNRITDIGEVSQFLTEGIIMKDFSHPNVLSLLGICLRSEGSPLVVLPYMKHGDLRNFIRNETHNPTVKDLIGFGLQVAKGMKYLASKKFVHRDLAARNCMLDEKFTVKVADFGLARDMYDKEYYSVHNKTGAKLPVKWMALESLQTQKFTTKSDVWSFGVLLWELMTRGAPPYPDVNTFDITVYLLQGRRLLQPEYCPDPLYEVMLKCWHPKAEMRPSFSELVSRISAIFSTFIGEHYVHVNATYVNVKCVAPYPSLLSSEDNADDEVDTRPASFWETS
Chain of KDR (phospho-KDR, VEGF165-stimulated HUVEC cells) (P35968 20-1356): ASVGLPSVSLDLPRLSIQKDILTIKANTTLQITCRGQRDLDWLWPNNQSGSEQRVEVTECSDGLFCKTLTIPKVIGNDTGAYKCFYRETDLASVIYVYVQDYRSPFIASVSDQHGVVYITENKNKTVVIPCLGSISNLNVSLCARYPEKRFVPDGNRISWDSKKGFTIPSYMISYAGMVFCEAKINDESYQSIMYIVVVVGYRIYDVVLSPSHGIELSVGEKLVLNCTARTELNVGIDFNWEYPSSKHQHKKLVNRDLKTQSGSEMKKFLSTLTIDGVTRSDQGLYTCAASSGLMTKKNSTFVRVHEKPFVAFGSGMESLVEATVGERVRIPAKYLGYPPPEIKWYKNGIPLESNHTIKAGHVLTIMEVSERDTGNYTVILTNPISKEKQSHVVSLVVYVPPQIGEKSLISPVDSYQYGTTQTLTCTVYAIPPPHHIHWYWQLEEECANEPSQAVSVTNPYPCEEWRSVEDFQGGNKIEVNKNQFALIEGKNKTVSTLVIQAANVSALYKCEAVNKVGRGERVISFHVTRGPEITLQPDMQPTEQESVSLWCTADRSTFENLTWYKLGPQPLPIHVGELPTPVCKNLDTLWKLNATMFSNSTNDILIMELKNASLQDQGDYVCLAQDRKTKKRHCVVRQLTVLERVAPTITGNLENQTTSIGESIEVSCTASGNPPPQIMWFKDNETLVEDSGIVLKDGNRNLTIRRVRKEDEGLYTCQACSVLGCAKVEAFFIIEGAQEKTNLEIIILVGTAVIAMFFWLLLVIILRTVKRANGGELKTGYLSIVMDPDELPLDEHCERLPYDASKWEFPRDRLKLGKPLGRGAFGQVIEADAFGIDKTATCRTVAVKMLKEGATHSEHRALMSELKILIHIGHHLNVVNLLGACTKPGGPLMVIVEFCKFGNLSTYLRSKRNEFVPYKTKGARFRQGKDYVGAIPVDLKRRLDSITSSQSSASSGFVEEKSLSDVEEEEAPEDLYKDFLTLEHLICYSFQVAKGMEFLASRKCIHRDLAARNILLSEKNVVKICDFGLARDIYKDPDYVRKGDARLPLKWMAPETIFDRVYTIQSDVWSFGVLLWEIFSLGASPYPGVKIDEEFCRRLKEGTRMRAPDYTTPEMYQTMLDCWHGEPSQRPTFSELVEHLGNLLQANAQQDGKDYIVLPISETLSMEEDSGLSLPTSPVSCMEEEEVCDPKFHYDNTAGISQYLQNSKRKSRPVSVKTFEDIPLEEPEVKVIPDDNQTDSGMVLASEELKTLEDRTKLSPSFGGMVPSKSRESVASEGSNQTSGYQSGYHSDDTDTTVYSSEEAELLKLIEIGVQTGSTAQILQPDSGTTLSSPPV

With `Cc1cnc(C(=O)Nc2ccc(Oc3ccnc4cnc(Cl)cc34)c(F)c2)c(=O)n1-c1ccc(F)cc1` [Compound 498, N-[4-[(6-chloro-1,7-naphthyridin-4-yl)oxy]-3-fluorophenyl]-4-(4-fluorophenyl)-5-methyl-3-oxopyrazine-2-carboxamide], the IC50 in experiment [1] was less than 100 nM; in experiment [2], less than 100 nM; in experiment [3] it was less than 100 nM; in experiment [4], greater than 300 nM.
With `COc1cc2c(Oc3ccc(NC(=O)c4cnc(C)n(-c5ccc(F)cc5)c4=O)cc3F)ccnc2cn1` [Compound 499, N-[3-fluoro-4-[(6-methoxy-1,7-naphthyridin-4-yl)oxy]phenyl]-1-(4-fluorophenyl)-2-methyl-6-oxopyrimidine-5-carboxamide], the IC50 is less than 100 nM in experiment [1], less than 100 nM in experiment [2], less than 100 nM in experiment [3] and 100 to 300 nM in experiment [4].
For the compound `COc1cc2c(Oc3ccc(NC(=O)c4ncc(C)n(-c5ccc(F)cc5)c4=O)cc3F)ccnc2cn1` [Compound 500, N-[3-fluoro-4-[(6-methoxy-1,7-naphthyridin-4-yl)oxy]phenyl]-4-(4-fluorophenyl)-5-methyl-3-oxopyrazine-2-carboxamide], the IC50 is less than 100 nM in experiment [1], less than 100 nM in experiment [2], less than 100 nM in experiment [3] and 100 to 300 nM in experiment [4].
Consider `COCc1nc(C)c(-c2ccc(F)cc2)c(O)c1C(=O)Nc1ccc(Oc2ccnc3cnc(OC)cc23)c(F)c1` [Compound 501, N-[3-Fluoro-4-[(6-methoxy-1,7-naphthyridin-4-yl)oxy]phenyl]-5-(4-fluorophenyl)-4-hydroxy-2-(methoxymethyl)-6-methylpyridine-3-carboxamide], for which the IC50 in experiment [1], in experiment [2], in experiment [3] and in experiment [4] was less than 100 nM throughout.
On to `COCc1nc(C)c(-c2ccc(F)cc2)c(O)c1C(=O)Nc1ccc(Oc2ccnc3cnc(Cl)cc23)c(F)c1` [Compound 502, N-[4-[(6-Chloro-1,7-naphthyridin-4-yl)oxy]-3-fluorophenyl]-5-(4-fluorophenyl)-4-hydroxy-2-(methoxymethyl)-6-methylpyridine-3-carboxamide], for which the IC50 in experiment [1], in experiment [2], in experiment [3] and in experiment [4] was less than 100 nM each time.
Turning to `COc1cc2nccc(Oc3ccc(NC(=O)c4nnc(C)c(-c5ccc(F)cc5)c4OC)cc3F)c2nc1OC` [Compound 531, N-[4-[(6,7-dimethoxy-1,5-naphthyridin-4-yl)oxy]-3-fluorophenyl]-5-(4-fluorophenyl)-4-methoxy-6-methylpyridazine-3-carboxamide], the IC50 in experiment [1], in experiment [2], in experiment [3] and in experiment [4] was less than 100 nM each time.
Turning to `COCc1cnn(-c2ccc(F)cc2)c(=O)c1C(=O)Nc1ccc(Oc2ccnc3cc(OC)cnc23)c(F)c1` [Compound 532, N-[3-fluoro-4-[(7-methoxy-1,5-naphthyridin-4-yl)oxy]phenyl]-2-(4-fluorophenyl)-5-(methoxymethyl)-3-oxopyridazine-4-carboxamide], the IC50 was less than 100 nM in experiment [1], less than 100 nM in experiment [2], less than 100 nM in experiment [3] and greater than 300 nM in experiment [4].
On to `COCc1cnn(-c2ccc(F)cc2)c(=O)c1C(=O)Nc1ccc(Oc2ccnc3cc(OC)c(OC)nc23)c(F)c1` [Compound 533, N-[4-[(6,7-dimethoxy-1,5-naphthyridin-4-yl)oxy]-3-fluorophenyl]-2-(4-fluorophenyl)-5-(methoxymethyl)-3-oxopyridazine-4-carboxamide], for which the IC50 in experiment [1], in experiment [2], in experiment [3] and in experiment [4] was less than 100 nM in each case.
As to `COc1cc2nccc(Oc3ccc(NC(=O)c4nnc(C)c(-c5ccc(F)cc5)c4OC)cc3)c2nc1OC` [Compound 534, N-[4-[(6,7-dimethoxy-1,5-naphthyridin-4-yl)oxy]phenyl]-5-(4-fluorophenyl)-4-methoxy-6-methylpyridazine-3-carboxamide], the IC50 in experiment [1], in experiment [2], in experiment [3] and in experiment [4] was less than 100 nM in each case.
As to `COCc1nc(C)c(Br)c(O)c1C(=O)Nc1ccc(Oc2ccnc3cc(OC)c(OC)nc23)c(F)c1` [Compound 535, 5-bromo-N-[4-[(6,7-dimethoxy-1,5-naphthyridin-4-yl)oxy]-3-fluorophenyl]-4-hydroxy-2-(methoxymethyl)-6-methylpyridine-3-carboxamide], the IC50 in experiment [1] was less than 100 nM; in experiment [2] it was less than 100 nM; in experiment [3], less than 100 nM; in experiment [4], greater than 300 nM.
In the case of `COc1cc2nccc(Oc3ccc(NC(=O)c4n[nH]c(C)cc4=O)cc3F)c2nc1OC` [Compound 536, N-[4-[(6,7-dimethoxy-1,5-naphthyridin-4-yl)oxy]-3-fluorophenyl]-6-methyl-4-oxo-1H-pyridazine-3-carboxamide], the IC50 in experiment [1], in experiment [2], in experiment [3] and in experiment [4] was greater than 300 nM each time.
As for `COCc1cnn(-c2ccc(F)cc2)c(=O)c1C(=O)Nc1ccc(Oc2ccnc3cc(OC)c(OC)nc23)cc1` [Compound 537, N-[4-[(6,7-dimethoxy-1,5-naphthyridin-4-yl)oxy]phenyl]-2-(4-fluorophenyl)-5-(methoxymethyl)-3-oxopyridazine-4-carboxamide], the IC50 in experiment [1], in experiment [2], in experiment [3] and in experiment [4] was less than 100 nM throughout.
Consider `COc1ccc2nccc(Oc3ccc(NC(=O)c4nnc(C)c(-c5ccc(F)cc5)c4OC)cc3F)c2n1` [Compound 538, N-[3-fluoro-4-[(6-methoxy-1,5-naphthyridin-4-yl)oxy]phenyl]-5-(4-fluorophenyl)-4-methoxy-6-methylpyridazine-3-carboxamide], for which the IC50 in experiment [1], in experiment [2], in experiment [3] and in experiment [4] was less than 100 nM each time.
For `COc1cc2nccc(Oc3ccc(NC(=O)c4cn5c(c(-c6ccc(F)cc6)c4=O)COCC5)cc3F)c2nc1OC` [Compound 564, N-[4-[(6,7-Dimethoxy-1,5-naphthyridin-4-yl)oxy]-3-fluorophenyl]-9-(4-fluorophenyl)-8-oxo-3,4-dihydro-1H-pyrido[2,1-c][1,4]oxazine-7-carboxamide], the IC50 in experiment [1] was less than 100 nM; in experiment [2], less than 100 nM; in experiment [3], less than 100 nM; in experiment [4], 100 to 300 nM.
As for `CNC(=O)Cc1nc2c(Oc3ccc(NC(=O)c4cnc(C)c(-c5ccc(F)cc5)c4O)cc3F)ccnc2cc1OC` [Compound 570, N-[3-Fluoro-4-[[7-methoxy-6-[2-(methylamino)-2-oxoethyl]-1,5-naphthyridin-4-yl]oxy]phenyl]-5-(4-fluorophenyl)-4-hydroxy-6-methylpyridine-3-carboxamide], the IC50 in experiment [1], in experiment [2], in experiment [3] and in experiment [4] was less than 100 nM throughout.
`COc1cc2nccc(Oc3ccc(NC(=O)c4nnc(C)c(-c5ccc(F)cc5)c4OC)cc3F)c2cc1OC` [Compound 571, N-[4-(6,7-Dimethoxyquinolin-4-yl)oxy-3-fluorophenyl]-5-(4-fluorophenyl)-4-methoxy-6-methylpyridazine-3-carboxamide]: the IC50 in experiment [1], in experiment [2], in experiment [3] and in experiment [4] was less than 100 nM throughout.
Consider `CCOc1c(C(=O)Nc2ccc(Oc3ccnc4cc(OC)c(OC)cc34)c(F)c2)nnc(C)c1-c1ccc(F)cc1` [Compound 572, N-[4-(6,7-Dimethoxyquinolin-4-yl)oxy-3-fluorophenyl]-4-ethoxy-5-(4-fluorophenyl)-6-methylpyridazine-3-carboxamide], for which the IC50 in experiment [1], in experiment [2], in experiment [3] and in experiment [4] was less than 100 nM in each case.
Turning to `CCn1nc(C(=O)Nc2ccc(Oc3ccnc4cc(OC)c(OC)cc34)c(F)c2)c(=O)c(-c2ccc(F)cc2)c1C` [Compound 573, N-[4-(6,7-Dimethoxyquinolin-4-yl)oxy-3-fluorophenyl]-1-ethyl-5-(4-fluorophenyl)-6-methyl-4-oxopyridazine-3-carboxamide], the IC50 in experiment [1], in experiment [2], in experiment [3] and in experiment [4] was less than 100 nM each time.
Regarding `COc1cc2nccc(Oc3ccc(NC(=O)c4nnc(C)c(-c5ccc(F)cc5)c4OC(C)C)cc3F)c2cc1OC` [Compound 574, N-[4-(6,7-Dimethoxyquinolin-4-yl)oxy-3-fluorophenyl]-5-(4-fluorophenyl)-6-methyl-4-propan-2-yloxypyridazine-3-carboxamide], the IC50 in experiment [1], in experiment [2], in experiment [3] and in experiment [4] was less than 100 nM throughout.

The values are drawn from US12371428B2 (Exelixis, Inc., priority 2019, dated 2025).
